Results published in patent US20250204535A1, “Rodenticide” (priority 2022, published 2025).
Marks after values point to notes of the source that are not given here.

Tests used:
[1] = test system: Neonatal rat cardiomyocytes; assay: Screening purified venom fractions for alterations to cardiomyocyte beat rates; type: cell-based; conditions: for Highest Achieved Fold Increases in Beat Rate: 1 h; for fold increases to beat rate: dose of 6 μg/ml
Experimental: Neonatal rat cardiomyocytes were isolated as via standard protocol and seeded at a density of 100,000 cells/96 well. Once myocyte cultures were beating spontaneously in uniform sheets, they were videoed well-by-well using a microscope camera to determine pre-dose beat rates/min. […] Cells were incubated in each fraction in a humidified incubator at 37° C., 5% CO2 for 1 h. After 1 h videos of the cells were re-recorded to obtain the post-dosing beat rate/minute. Fold changes in beat frequency were calculated for each dosed well pair.

[2] = test system: rat neonatal cardiomyocyte cells; type: cell-based; conditions: 6 μg/ml, rat cardiomyocytes
Experimental: Thermal stability of the six lead fractions was investigated. Aliquots of each fraction were heated in a heat block to 37° C. (unheated), 60° C., 80° C. and 100° C. before being used to treat rat neonatal cardiomyocyte cells at a dose of 6 μg/ml. Cardiomyocyte toxicity was assessed after 24 hrs of dosing at each temperature against a similar aliquot of each fraction that had been unheated before dosing. After 24 h, 160 μM Resazurin dye was added to all cells and the change in cardiomyocyte cell viability/metabolism monitored every hour up to 5 h post dye addition. An additional measurement was recorded 24 hs after the dye had been added.

[3] = test system: Human IPSC-derived cardiomyocytes; assay: Six lead fractions: toxicity to human IPSC-derived cardiomyocytes (resazurin); type: cell-based; conditions: for cytotoxicity against human IPSC-derived cardiomyocytes: 7.5, 6, 3.5, 2.5 and 1 μg/ml, 2 h, FIG. 3
Experimental: Human IPSC-derived cardiomyocytes were purchased from Axol Biosciences and cultured as via their standard methodology. Briefly, cells were recovered from liquid nitrogen storage when required and the cells transferred dropwise into 10 ml of pre-warmed (37° C.) plating media (cardiomyocyte maintenance media+10% FCS+10 μM ROCK inhibitor). Cells were centrifuged at 200×g for 5 mins at room temperature. The supernatant was aspirated from the cell pellet and the cell pellet gently resuspended in 1 ml plating media. Cells were counted using a haemocytometer and trypan blue staining. Cells were plated at a seeding density of 10-20,000 cells/well in fibronectin pre-coated 384 well plates. Cells were incubated at 37° C., 5% CO2 in a humidified incubator overnight before the plating media was removed the following day and replace with fresh maintenance media (No FCS, no ROCK inhibitor). Partial media changes were performed every 2-days until cells formed a single continuous sheet of spontaneously beating cardiomyocytes (7-10 day in culture).
Once beating spontaneously, cells were treated with the six lead fractions diluted in maintenance media to final working concentrations of 7.5, 6, 3.5, 2.5 and 1 μg/ml. 30 μl of each fraction dilution was added to triplicate wells of cells and incubated for 2 h at 37° C., 5% CO2 in a humidified incubator. After 2 h, resazurin dye at a final working concentration of 160 μM were added to all wells and the change in fluorescence of the plate monitored over a 5 h timeframe using a BMG Labtech Fluostar plate reader. Percent toxicity was calculated from triplicate wells at each dose and plotted graphically.
Human IPSC derived cardiomyocytes were dosed in triplicate with a serial dilution of each of the six venom fractions (7.5, 6, 3.5, 2.5 and 1 μg/ml) for 2 hs at 37° C., 5% CO2 before resazurin dye was added and the change in colour and fluorescence monitored for the following 5 hrs. Percentage toxicity was calculated for each fraction at all doses and plotted graphically (FIG. 3).

[4] = test system: Neonatal rat cardiomyocytes; assay: Screening purified venom fractions for rat cardiomyocyte toxicity (resazurin); type: cell-based
Experimental: (§1) Hearts were collected from euthanised 1-2-day old neonatal rat pups and transferred into filter sterilised ice-cold Hanks balanced salt solution (HBSS) containing 2% Pen-strep. Hearts were washed in the HBSS, any non-heart tissue removed and then cut into 1-3 mm pieces and placed in 40 ml filter sterilised, ice cold 0.1% trypsin/HBSS. The heart pieces in trypsin were place in a large ice bucket and incubated overnight at 4° C. on a rocker with gentle agitation to allow the tissue to digest.
The following day, all trypsin was aspirated from the tissue and the tissue transferred evenly into 2 ml Eppendorf tubes. The tissue was then digested further using a 37° C. 1 mg/ml collagenase/HBSS (filter sterilised) solution. […]
(§2) Neonatal rat cardiomyocytes and cardiac fibroblasts were treated with purified venom fractions suspected of being cardiotoxins at doses of 12.5, 7.5, 6 μg/ml, with rat cardiomyocytes being treated at additional concentrations of 3.5, 2.5, 1 and 0.5 μg/ml for 2 hs in a humidified incubator at 37° C., 5% CO2. […] The change in fluorescence of the resazurin dye was monitored over a 5 h timeframe using a BMG Fluostar plate reader. Percent inhibition of both cell types in response to each fraction at each dose were calculated and plotted graphically.

[5] = test system: neonatal rat cardiac fibroblast cells; assay: Screening purified venom fractions for rat cardiac fibroblast toxicity (resazurin); type: cell-based
Experimental: as §1
The following day, all trypsin was aspirated from the tissue and the tissue transferred evenly into 2 ml Eppendorf tubes. The tissue was then digested further using a 37° C. 1 mg/ml collagenase/HBSS (filter sterilised) solution. For each collagenase digestion, 2 ml of enzyme buffer was added to all Eppendorf tubes and the tubes incubated in a 37° C. heating block for 2 mins with 400 rpm agitation. The supernatant from the first two digestions was discarded. After each of the following digestion steps, the tissue was gently triturated using a pipette to release cells. Once trituration was complete the supernatant was retained, added to a tube containing 10 ml cell culture media and stored on ice.
All cell containing supernatants were filtered through a 250 μm cell strainer to remove any potentially undigested tissue and myocytes separated from cardiac fibroblast by spinning the supernatant at 1800 g for 45 mins through a Percoll gradient. […]
as §2

[6] = dogs; study of 2020 (Seljetun et al); cited from earlier work
Caco-2 cells = assay: Caco-2 permeability assay (bi-directional); conditions: positive control
Experimental: Cells were seeded on to Millipore Multiscreen Transwell plates at 1×10^5 cells/cm^2. The cells were cultured in DMEM and media was changed every two or three days. On day 20, the permeability study was performed. […] On the day of the assay, the monolayers were prepared by rinsing both basolateral and apical surfaces twice with Hanks Balanced Salt Solution (HBSS) at the desired pH warmed to 37° C. Cells were then incubated with HBSS at the desired pH in both apical and basolateral compartments for 40 min to stabilise physiological parameters.
The fluorescent integrity marker lucifer yellow was also included in the dosing solution. Analytical standards were prepared from test compound water dilutions and transferred to buffer, maintaining a ≤1% v/v water concentration. Assay buffer was composed of supplemented HBSS pH 7.4.
For assessment of apical to basolateral (A2B) permeability, HBSS was removed from the apical compartment and replaced with test compound dosing solution. The apical compartment insert was then placed into a companion plate containing fresh buffer (containing ≤1% v/v Water). For assessment of B2A permeability, HBSS was removed from the companion plate and replaced with test compound dosing solution. Fresh buffer (containing ≤1% v/v Water) was added to the apical compartment insert, which was then placed into the companion plate.
At 120 min, the apical compartment inserts and the companion plates were separated, and apical and basolateral samples diluted for analysis. Test compound permeability was assessed in duplicate. Compounds of known permeability characteristics were run as controls on each assay plate.
Test and control compounds were quantified by LC-MS/MS cassette analysis using a 7-point calibration with appropriate dilution of the samples. Cyprotex generic analytical conditions were used. The starting concentration (CO) was determined from the dosing solution and the experimental recovery calculated from CO and both apical and basolateral compartment concentrations.
The integrity of the polarised cell monolayers throughout the experiment was checked by monitoring lucifer yellow permeation using fluorometric analysis. Permeation of this paracellular marker is low if monolayers have not been damaged. […] If this was not the case, then the result from the affected monolayer was excluded.
The determined concentration (nM≡pmol/mL) of each test sample receiver well is multiplied by the volume of the receiver compartment (apical=0.09 mL, basolateral=0.210 mL) to calculate the amount (pmol) of probe substrate permeating the monolayer.
Where dQ/dt is the rate of permeation of the drug across the cells, C0 is the donor compartment concentration at time zero and A is the area of the cell monolayer. C0 was obtained from analysis of the dosing solution.
An efflux ratio (ER) was calculated from mean A to B and B to A data. This is derived from:
Percentage recovery (mass balance) of the test compound or positive control substrate was calculated by dividing the sum of the amount (pmol) in the receiver and donor compartments post-incubation by the amount in the initial donor solution at time zero (C0) and expressing as a percentage.
The insert was inserted into the well of a plate to form an Apical chamber (above cells) and basolateral chamber (below cells), with a permeable membrane between the two layers. Compound was then added to either the apical or basolateral chamber and the passage of it monitored into the other chamber. Transfer of the test compound from the apical to basolateral chamber was indicative of cellular uptake, simulating transition of the compound from the intestinal lumen to the bloodstream by uptake receptors (Direction A). […] An Efflux ratio was then calculated from the values obtained for A2B and B2A transmission.

[7] = any of the tested doses, up to 12.5 μg/ml

## N.aan_I15_R4 (LKCHKLVPPVWKTCPEGKNLCYKMFMVSTSTVPVKRGCIDVCPKDSALVKYVCCSTDKCN)
[1]; Dose 6 μg/ml
  Highest Achieved Fold Increases in Beat Rate: 3.50 fold
[1]
  fold increases to beat rate: greater than 3.5 fold
[2]; fraction heated at 100° C. vs 37° C., 24 h
  reduction of cardiomyocyte toxicity after heating: ~10%
[3]
  cytotoxicity against human IPSC-derived cardiomyocytes: no observable cardiomyocyte cellular toxicity
[3]; listed as N.ann_I15_R4
  cytotoxicity against human IPSC-derived cardiomyocytes: low levels of cytotoxicity
[4]; [7]
  toxicity to rat cardiomyocytes (in words): no visibly or detectible toxicity
[5]; [7]
  toxicity to cardiac fibroblasts (in words): no visibly or detectible toxicity

## O=c1oc2ccccc2c(O)c1C1CC(c2ccc(-c3ccc(Br)cc3)cc2)Cc2ccccc21 (stereo not shown) [Brodifacoum, 3-[3-(4′-bromobiphenyl-4-yl)-1,2,3,4-tetrahydronaphth-1-yl]-4-hydroxycoumarin]
[6]
  time present in dog faeces after a single ingestion: more than 700 days

## N.atr_I28_R3 (LKCNKLVPLFYKTCPAGKNLCYKMFMVSNLTVPVKRGCIDVCPKSSLLVKYVCCNTDRCN)
[1]; Dose 6 μg/ml
  Highest Achieved Fold Increases in Beat Rate: 5.35 fold
[1]
  fold increases to beat rate: greater than 5 fold
[3]; 3.5 μg/ml
  toxicity in human IPSC-derived cells compared to rodent cardiomyocytes: reduction in toxicity

## O=c1oc2ccccc2c(O)c1C1CC(c2ccc(-c3ccccc3)cc2)Cc2ccccc21 (stereo not shown) [Difenacoum, 3-[3-p-diphenyl-1,2,3,4-hydronaphth-1-yl]-4-hydroxycoumarin]
[6]
  time present in dog faeces after a single ingestion: > 650 days

## N.naj_I25_R3 (LKCNKLVPLFYKTCPAGKDLCYKMYMVATPKVPVKRGCIDVCPKSSLLVKYVCCNTDRCN)
[1]; Dose 3.5 μg/ml
  Highest Achieved Fold Increases in Beat Rate: 13.75 fold
[1]
  fold increases to beat rate: greater than 8.5 fold
[2]; 37, 60, 80, 100° C., FIG. 4
  thermal stability (change in cytotoxic activity after heating): no significant changes in the activity
[4]; neonatal rat cardiomyocytes
  doses showing rat cardiomyocyte toxicity: ≥ 6 µg/mL
[5]; neonatal rat cardiac fibroblasts
  doses showing cardiac fibroblast toxicity: 12.5 µg/mL

## C[C@]12CC[C@@H]3c4ccc(OS(=O)(=O)O)cc4CC[C@H]3[C@@H]1CCC2=O [Estrone 3-sulfate, estrone 3-sulfate]
Caco-2 cells; A2B
  Mean % Recovery: 68.6%
Caco-2 cells; A2B, 120 min, pH 7.4
  Papp Mean: 0.225 ×10^−6 cms^−1
  Papp Rep 1: 0.225 ×10^−6 cms^−1
Caco-2 cells; B2A
  Mean % Recovery: 85.7%
Caco-2 cells; B2A, 120 min, pH 7.4
  Papp Mean: 34.9 ×10^−6 cms^−1
  Papp Rep 1: 33.1 ×10^−6 cms^−1
  Papp Rep 2: 36.6 ×10^−6 cms^−1
Caco-2 cells; from mean A to B and B to A data
  ER (efflux ratio): 155 ^b
